This note sets out measurements from PubChem BioAssay (NCI).

Each structure is given as a SMILES string.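 Compound exposure: 48 hours, 5 concentrations, 96-well plates. TGI denotes the concentration required for complete inhibition of growth.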

Holding throughout (assay): NCI tumour cell line growth inhibition, 48 h
The subject of assay [1] is A498 renal.
Assay [2] deals with HCC-2998 colon.
Assay [3] concerns HS 578T breast.
Assay [4] deals with LOX IMVI melanoma.
For assay [5], the system named is MOLT-4 leukemia.
The subject of assay [6] is NCI-H226 lung.
In assay [7] the test system is NCI-H460 lung.
Assay [8] concerns NCI/ADR-RES ovarian.
The test system of assay [9] is OVCAR-3 ovarian.
Assay [10] has as its system OVCAR-4 ovarian.
In assay [11] the test system is SF-268 CNS.
Assay [12] relates to SK-MEL-5 melanoma.
The test system of assay [13] is SK-OV-3 ovarian.
Assay [14] has as its system SNB-75 CNS.
In assay [15] the test system is T-47D breast.

Consider `CCOC(=O)C(NNS(=O)(=O)c1ccc(C)cc1)S(=O)(=O)C(F)(F)C(F)(F)C(F)(F)C(F)(F)F` (configuration not stated), for which the TGI in assay [1], in assay [2], in [3], in assay [4], in assay [5] and in assay [6] was greater than 100 µM each time. The TGI in assay [7], in assay [8], in assay [9], in [10], in [11] and in assay [12] was greater than 100 µM in each case. Further, the TGI in [13], in [14] and in assay [15] was greater than 100 µM each time.

Regarding `O=S(=O)(O)c1cc(S(=O)(=O)O)c2c(N=Nc3cccc4ccccc34)c(O)ccc2c1`, the TGI in assay [1], in assay [2], in [3], in assay [4], in assay [5] and in assay [6] was greater than 100 µM throughout. Moreover, the TGI in assay [7], in assay [8], in assay [9], in [10], in assay [11] and in assay [12] was greater than 100 µM each time. Further, the TGI in assay [13], in assay [14] and in assay [15] was greater than 100 µM each time.

In the case of `CCCCCCCC/C=C\CCCCCCCCNc1ccn(C2OC(COP(=O)(O)OC3CC(n4cc(F)c(=O)[nH]c4=O)OC3CO)C(O)C2O)c(=O)n1` (configuration not stated), the TGI is greater than 53.2 µM in [1]; greater than 100 µM in assay [2]; greater than 100 µM in [3]; greater than 37.2 µM in assay [4]; 20.5 µM in [5]; greater than 100 µM in [6]. Further, the TGI in assay [7], in [8], in assay [9], in assay [10], in assay [11] and in assay [12] was greater than 100 µM each time. The TGI in assay [13], in assay [14] and in assay [15] was greater than 100 µM throughout.

On to `Cc1nnc(Nc2ccc(Cl)cc2)o1`, for which the TGI in [1], in assay [2], in assay [3], in assay [4], in assay [6] and in assay [7] was greater than 10 µM each time. Moreover, the TGI in assay [8], in [9], in assay [10], in assay [11], in [12] and in [13] was greater than 10 µM each time. Further, the TGI in assay [14] and in assay [15] was greater than 10 µM in each case.

Regarding `C[C@]12CC[C@@H]3c4ccc(OC(=O)c5ccccc5)cc4CC[C@H]3[C@@H]1CCC2OC(=O)c1cccc2c(=O)c3ccccc3[nH]c12` (some centres not stated), the TGI in assay [1] is 64 µM; in [2], 30 µM; in [3] it was 38.5 µM; in [4] it was 31 µM; in assay [5], greater than 100 µM; in [6] it was 39.6 µM. Moreover, the TGI in assay [7] is 32.2 µM; in [8] it was 39.9 µM; in assay [9] it was greater than 100 µM; in assay [10], 33.8 µM; in [11] it was 44.9 µM; in [12] it was 57.9 µM. In addition, the TGI amounted to 74.2 µM in [13], 55.8 µM in [14] and 60.2 µM in assay [15].

`O=C(O)c1ccc(Nc2ccnc3cc(Cl)ccc23)cc1O`: the TGI in assay [1], in assay [2], in assay [3], in assay [4], in assay [5] and in [6] was greater than 100 µM in each case. The TGI in assay [7], in assay [8], in assay [9], in assay [10], in assay [11] and in assay [12] was greater than 100 µM in each case. Moreover, the TGI in assay [13], in assay [14] and in [15] was greater than 100 µM each time.

Consider `N#Cc1c(C#N)c(-c2cccc([N+](=O)[O-])c2)n(-c2ccccc2)c1N`, for which the TGI in [1] is greater than 100 µM; in [2], greater than 100 µM; in assay [3], greater than 100 µM; in assay [4], greater than 100 µM; in assay [5], greater than 100 µM; in assay [6], 86.1 µM. Also, the TGI in assay [8], in assay [9], in assay [10], in assay [11], in assay [12] and in assay [13] was greater than 100 µM each time. The results for the TGI in assay [14] and in assay [15] were 61 µM and greater than 100 µM, respectively.

On to `COC(=O)[C@H](CCSC)NC(=O)c1ccc(CNC(=O)/C=C/c2cccc(Oc3ccccc3)c2)cc1`, for which the TGI in [1] was 48.3 µM; in [2], greater than 84 µM; in assay [3] it was greater than 100 µM; in assay [4], greater than 100 µM; in assay [5], 33.4 µM; in [6], greater than 62.9 µM. Also, the TGI was greater than 100 µM in assay [7]; greater than 100 µM in [8]; greater than 93.6 µM in assay [9]; greater than 90.6 µM in [10]; greater than 100 µM in assay [11]; 34.5 µM in [12]. Further, the values for the TGI in assay [13], in assay [14] and in assay [15] were greater than 100 µM, greater than 100 µM and 27 µM, respectively.

`CC1=CC(C)C(C)N(CCNC(=O)Nc2ccccc2)c2ccccc21` (configuration not stated): the TGI in [1] turned out to be 66 µM; in [2], 61.1 µM; in [3] it was 30.3 µM; in assay [4], 24.3 µM; in [5] it was 64.4 µM; in assay [6], 72.9 µM. Moreover, the TGI in assay [7] is 74.4 µM; in [8], 67.9 µM; in [9], 51.2 µM; in [10], greater than 100 µM; in assay [11], greater than 100 µM; in assay [12], 27.8 µM. For the same compound, the TGI was found to be 65.1 µM in assay [13], 82.4 µM in [14] and 61.2 µM in assay [15].

`c1ccc(N/N=C2\CC(c3ccccc3)Oc3ccccc32)cc1` (configuration not stated): the TGI in assay [1], in [2], in [3], in assay [4], in assay [5] and in [6] was greater than 100 µM in each case. The TGI in assay [7], in assay [8], in [9], in assay [10], in assay [11] and in [12] was greater than 100 µM throughout. Moreover, the values for the TGI in [13], in assay [14] and in assay [15] were greater than 100 µM, 75.2 µM and greater than 100 µM, respectively.

In the case of `Cc1cc(S(=O)(=O)Nc2nc(N)n(-c3cnc4ccccc4n3)n2)c(S)cc1Cl`, the TGI in assay [1], in [2], in assay [3], in [4], in assay [6] and in assay [7] was greater than 100 µM in each case. The TGI in assay [8], in assay [9], in assay [10], in [11], in assay [12] and in assay [13] was greater than 100 µM throughout. Moreover, the TGI in assay [14] and in [15] was greater than 100 µM in each case.

Consider `CC12CN(CC[N+](C)(C)C)CC1(C)C1CCC2O1` (configuration not stated), for which the TGI in [1], in assay [2], in assay [3], in assay [4], in assay [5] and in assay [6] was greater than 100 µM each time. Also, the TGI in assay [7], in assay [8], in assay [9], in assay [10], in assay [11] and in [12] was greater than 100 µM throughout. The TGI in [13], in [14] and in assay [15] was greater than 100 µM each time.

Consider `CCOC(=O)Cc1ccc(Nc2nc3cc(C(F)(F)F)ccc3nc2C(=O)OCC)cc1`, for which the TGI in [1] was greater than 100 µM; in assay [3], 85.1 µM; in [4] it was greater than 100 µM; in assay [5], greater than 100 µM; in [6] it was 91.6 µM; in assay [7], greater than 100 µM. The TGI in [8], in assay [9], in [10], in assay [11], in [12] and in [13] was greater than 100 µM throughout. Also, the results for the TGI in [14] and in [15] were 48.2 µM and greater than 100 µM, respectively.

Regarding `COc1cccc2c1C(=O)C(=O)c1c-2oc(=O)c2cc(C)cc(OC)c12`, the TGI in [1] is greater than 75 µM; in assay [2], 37.6 µM; in [3], 55.1 µM; in [4], 26.5 µM; in assay [5], 74.3 µM; in [6] it was greater than 75 µM. Moreover, the TGI was greater than 75 µM in assay [7]; 31.7 µM in [8]; 27.2 µM in assay [9]; 26.7 µM in assay [10]; 41.8 µM in assay [11]; 35.6 µM in [12]. Besides, the TGI in [13] is greater than 75 µM; in assay [14] it was 55.7 µM; in [15], greater than 75 µM.

Take `O=C1c2ccccc2C(=O)c2c(OCC3CO3)ccc(OCC3CO3)c21` (configuration not stated): the TGI in [1] is greater than 47.5 µM; in assay [2], greater than 46.3 µM; in assay [3] it was 36.8 µM; in assay [4], 0.515 µM; in [5], 0.95 µM; in assay [6] it was 35.9 µM. Further, the TGI in assay [7] was 8.86 µM; in assay [8], 8.73 µM; in [9] it was 10.7 µM; in [10], 30.9 µM; in [11] it was 2.29 µM; in assay [12], 15.5 µM. For the same compound, the results for the TGI in assay [13], in [14] and in assay [15] were 36.2 µM, 29.9 µM and 24.1 µM, respectively.

As to `O=C(Sc1c(-c2ccccc2)c(=O)n(-c2ccccc2)c(=S)n1-c1ccccc1)c1ccc(Cl)cc1`, the TGI in assay [1], in assay [2], in [3], in assay [4], in [5] and in assay [6] was greater than 100 µM throughout. For the same compound, the TGI in assay [7], in assay [8], in [9], in assay [10], in assay [11] and in [13] was greater than 100 µM in each case. For the same compound, the TGI in assay [14] and in assay [15] was greater than 100 µM in each case.

Turning to `CNC(=O)Nc1cc2c3c(c1)CCCN3CCC2`, the TGI in assay [1], in [2], in [3], in assay [4], in assay [6] and in [7] was greater than 10 µM throughout. Further, the TGI in [8], in [9], in [10], in assay [11], in assay [12] and in assay [13] was greater than 10 µM each time. Besides, the TGI in [14] and in [15] was greater than 10 µM each time.

For `COc1ccc(C)c2c1N[C@](C)([C@]1(C)Nc3c(OC)ccc(C)c3C1=O)C2=O`, the TGI in [1], in assay [2], in [3], in [4], in assay [5] and in [6] was greater than 100 µM throughout. For the same compound, the TGI in assay [7], in assay [8], in assay [9], in assay [10], in [11] and in [12] was greater than 100 µM throughout. The TGI in assay [13] and in assay [15] was greater than 100 µM throughout.

Turning to `COC(=O)c1cc(C#N)[nH]c1-c1ccsc1`, the TGI in [1], in assay [2], in assay [3], in assay [4], in assay [5] and in assay [6] was greater than 100 µM in each case. Besides, the TGI in assay [8], in assay [9], in [10], in assay [11], in [12] and in assay [13] was greater than 100 µM in each case. The TGI in assay [14] and in [15] was greater than 100 µM each time.
